As usually defined, the IC50 is the concentration that inhibits the measured activity by half. A low value points to higher potency. For orientation: GI50 means the concentration giving 50% growth inhibition.

This is an account of results in patent US20230126204A1, “[1,3]DIAZINO[5,4-d]PYRIMIDINES AS HER2 INHIBITORS” (Boehringer Ingelheim International GmbH, priority 2020, published 2023).

Common to all, as to type: cell-based
For one assay, the target named is T1, HER2 YVMA (Homo sapiens, UniProt P04626, INS775YVMA).
T1 construct: expressed in transfected cells; host or cells: human HEK cells, retroviral transduction, puromycin selection, doxycycline-inducible expression
Kind of assay: pHER2 (ERBB2) YVMA assay (AlphaScreen Surefire, HEK cells). The following applies: HEK cells expressing HER2 YVMA, phosphorylation at Tyr1221/1222, 4 h. As to the method: (§1) For the assay, HEK HER2 YVMA cells were seeded in MEM medium with 10% FBS. 4 hours prior to compound addition, HER2 YVMA expression was induced using 1 μg/ml Doxycycline. […] Subsequently, 60.000 cells/well in 60 μL were added. Cells were incubated with compounds for 4 h at 37° C. […] The mixture was incubated at a temperature of 20-25° C. with shaking (700 rpm) for 20 min. After centrifugation, 4 μL of the lysate were transferred to Proxiplates. […] Plates were shaken for 1 min (1400 rpm) and incubated for 2 h at a temperature of 20-25° C. in the dark.
The results of the assay are provided as IC50 values.

Another assay deals with T2, EGFR wild type (WT) (Homo sapiens, UniProt P00533).
T2 construct: expressed in transfected cells; host or cells: human HEK cells (ATCC CRL-1573), retroviral transduction, puromycin selection
Kind of assay: pEGFR assay (AlphaScreen Surefire, HEK cells). To be noted: HEK cells expressing EGFR WT, phosphorylation at Tyr1068, 4 h. As to the method: This assay quantifies the phosphorylation of EGFR at Tyr1068 and was used to measure the inhibitory effect of compounds on the transgenic EGFR wild type (WT) protein expressed in HEK cells.
as §1, with “Transduced cells were selected using puromycin. p-EGFR Tyr1068 was determined using the AlphaScreen Surefire pEGF Receptor (Tyr1068) Assay (PerkinElmer, TGRERS). For” for “For”, “EGFR WT” for “HER2 YVMA”, “FBS.” for “FBS. 4 hours prior to compound addition, HER2 YVMA expression was induced using 1 μg/ml Doxycycline.”
This cellular phospho-EGFR (pEGFR) compound dose-response assay quantifies the phosphorylation of EGFR at Tyr1068 in HEK cells expressing EGFR WT. The results of the assay are provided as IC50 values.
(In general: In Alpha technology, singlet oxygen from a donor bead excites a nearby acceptor bead.)

The test system of assay [1] is NCI-H2170 (HER2 wild type) cells. As to the kind of experiment: Tumor cell proliferation assay NCI-H2170 (HER2 wild type). To be noted: Homo sapiens, 72 h, CellTiter-Glo, read-out: GI50 NCI H-2170 HER2 wt amp. As to the method: (§2) For proliferation assays, NCI-H2170 (HER2 wild type), NCI-H2170 HER2 YVMA and EGFR WT dependent A431 cells were used. NCI-H2170 HER2 YVMA or NCI-H2170 cells were seeded into 96-well plates at 750 cells/60 μL in growth media (RPMI ATCC+10% FBS, +Penicillin/Streptomycin). […] Compounds were added by using a HP D3000 Digital Dispenser one day after plating the cells. All treatments were performed in technical triplicates. Treated cells were incubated for 72 h at 37° C. with 5% CO2. CellTiter-Glo® Luminescent Cell Viability Assay (Promega) was performed and chemoluminescence was measured by using the multilabel Plate Reader VICTOR X4. The raw data were imported into and analyzed with the Boehringer Ingelheim proprietary software MegaLab (curve fitting based on the program PRISM, GraphPad Inc.).
On the technique in general: Cellular ATP, detected with luciferase, serves as a proxy for viable cell number.

The subject of assay [2] is NCI-H2170 HER2 YVMA cells. Kind of assay: Tumor cell proliferation assay NCI-H2170 HER2 YVMA. The following applies: Homo sapiens, 72 h, CellTiter-Glo, read-out: GI50 NCI H-2170 HER2 YVMA.
Text: HER2 YVMA tumor cell line model generation and proliferation assays
Homology-directed genome engineering was employed to insert a 12 nucleotide sequence encoding YVMA into Exon 20 of the genomic HER2 locus in NCI-H2170 cells. […] The DNA template containing the HER2 exon 20 YVMA insertion variant was obtained from GenScript. PCR followed by Sanger sequencing was used to confirm the presence of the 12-nucleotide insertion in HER2 Exon 20 resulting in the YVMA amino acid duplication.
as §2

Assay [3] has as its system EGFR WT dependent A431 cells. Kind of assay: Tumor cell proliferation assay A431 (EGFR WT dependent). The following applies: Homo sapiens, A-431; 72 h, CellTiter-Glo; read-out: GI50 A431 EGFR wt amp. On the procedure:
as §2

The next assay concerns Ba/F3 cells HER2 WT. Kind of assay: Ba/F3 proliferation assay HER2 WT. The following applies: Mus musculus, BaF3; 72 h, CellTiter-Glo. On the procedure:
(§3) Ba/F3 cell model generation and proliferation assays
(§4) Plasmids containing HER2 mutants and EGFR WT were obtained from GeneScript. To generate EGFR/HER2-dependent Ba/F3 models, Ba/F3 cells were transduced with retroviruses containing vectors that harbor EGFR WT, HER2 WT or HER2 mutants (YVMA). Platinum-E cells (Cell Biolabs) were used for retrovirus packaging. Retrovirus was added to Ba/F3 cells. To ensure infection, 4 μg/mL polybrene was added and cells were spinfected. Infection efficiency was confirmed by measuring GFP-positive cells using a cell analyzer. Cells with an infection efficiency of 10% to 20% were further cultivated and puromycin selection with 1 μg/mL was initiated. As a control, parental Ba/F3 cells were used to assess the selection status. Selection was considered successful when parental Ba/F3 cells cultures died. To evaluate the transforming potential of HER2 mutations, the growth medium was no longer supplemented with IL-3. Ba/F3 cells harboring the empty vector were used as a control. A switch from IL-3 to EGF was performed for Ba/F3 cells with the EGFR WT known for its dependency on EGF ligand. Approximately ten days before conducting the experiments, puromycin was left out. For proliferation assays (data in table 12 and 14), Ba/F3 cells were seeded into 96-well plates at 5×10^3 cells/100 μL in growth media. Compounds were added by using a HP D3000 Digital Dispenser. All treatments were performed in technical triplicates. Treated cells were incubated for 72 h at 37° C. with 5% CO2. CellTiter-Glo® Luminescent Cell Viability Assay (Promega) was performed and chemoluminescence was measured by using the multilabel Plate Reader VICTOR X4. The raw data were imported into and analyzed with the Boehringer Ingelheim proprietary software MegaLab (curve fitting based on the program PRISM, GraphPad Inc.).

Assay [4] concerns Ba/F3 cells HER2 mutants (YVMA). Kind of assay: Ba/F3 proliferation assay HER2 YVMA. To be noted: Mus musculus, BaF3; 72 h, CellTiter-Glo. As to the method: as §3, §4
A further assay concerns Ba/F3 cells EGFR WT. As to the kind of experiment: Ba/F3 proliferation assay EGFR WT (EGF dependent). To be noted: Mus musculus, BaF3, EGF instead of IL-3, 72 h, CellTiter-Glo, read-out: GI50 BAF3 EGF dep. As to the method: as §3, §4

T1 sequence (P04626 with tags, fused parts or gaps INS775YVMA): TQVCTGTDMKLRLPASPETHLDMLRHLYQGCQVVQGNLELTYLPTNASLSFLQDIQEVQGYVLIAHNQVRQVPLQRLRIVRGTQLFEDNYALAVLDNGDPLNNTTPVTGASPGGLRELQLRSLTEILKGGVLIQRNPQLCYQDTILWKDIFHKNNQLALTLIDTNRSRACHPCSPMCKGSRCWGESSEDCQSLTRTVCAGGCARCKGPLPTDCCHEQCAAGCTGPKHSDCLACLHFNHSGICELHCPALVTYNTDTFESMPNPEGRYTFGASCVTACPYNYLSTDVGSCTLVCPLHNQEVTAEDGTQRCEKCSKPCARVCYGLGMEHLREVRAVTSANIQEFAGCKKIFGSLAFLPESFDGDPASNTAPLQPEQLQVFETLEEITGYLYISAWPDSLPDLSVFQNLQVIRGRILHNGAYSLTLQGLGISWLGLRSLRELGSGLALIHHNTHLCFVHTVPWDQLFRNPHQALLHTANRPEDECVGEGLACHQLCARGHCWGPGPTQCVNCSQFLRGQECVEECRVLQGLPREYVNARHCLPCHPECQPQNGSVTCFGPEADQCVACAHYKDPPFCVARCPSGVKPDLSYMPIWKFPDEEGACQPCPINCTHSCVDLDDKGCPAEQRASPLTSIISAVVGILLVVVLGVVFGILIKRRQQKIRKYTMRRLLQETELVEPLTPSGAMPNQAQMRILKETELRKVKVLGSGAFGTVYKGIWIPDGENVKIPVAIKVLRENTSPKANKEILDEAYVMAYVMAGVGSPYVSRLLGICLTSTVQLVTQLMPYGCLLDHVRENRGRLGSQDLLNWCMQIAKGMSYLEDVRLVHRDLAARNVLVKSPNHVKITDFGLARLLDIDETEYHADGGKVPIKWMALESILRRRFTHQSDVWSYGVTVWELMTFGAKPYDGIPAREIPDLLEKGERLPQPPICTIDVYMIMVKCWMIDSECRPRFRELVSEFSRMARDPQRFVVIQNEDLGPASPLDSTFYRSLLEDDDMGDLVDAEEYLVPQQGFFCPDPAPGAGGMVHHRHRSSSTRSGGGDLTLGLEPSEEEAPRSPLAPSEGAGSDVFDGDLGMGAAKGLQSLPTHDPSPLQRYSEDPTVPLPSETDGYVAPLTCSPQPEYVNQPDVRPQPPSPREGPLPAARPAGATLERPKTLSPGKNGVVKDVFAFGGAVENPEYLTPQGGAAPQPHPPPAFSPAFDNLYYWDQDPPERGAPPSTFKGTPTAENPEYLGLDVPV
T2 sequence (P00533 25-1210): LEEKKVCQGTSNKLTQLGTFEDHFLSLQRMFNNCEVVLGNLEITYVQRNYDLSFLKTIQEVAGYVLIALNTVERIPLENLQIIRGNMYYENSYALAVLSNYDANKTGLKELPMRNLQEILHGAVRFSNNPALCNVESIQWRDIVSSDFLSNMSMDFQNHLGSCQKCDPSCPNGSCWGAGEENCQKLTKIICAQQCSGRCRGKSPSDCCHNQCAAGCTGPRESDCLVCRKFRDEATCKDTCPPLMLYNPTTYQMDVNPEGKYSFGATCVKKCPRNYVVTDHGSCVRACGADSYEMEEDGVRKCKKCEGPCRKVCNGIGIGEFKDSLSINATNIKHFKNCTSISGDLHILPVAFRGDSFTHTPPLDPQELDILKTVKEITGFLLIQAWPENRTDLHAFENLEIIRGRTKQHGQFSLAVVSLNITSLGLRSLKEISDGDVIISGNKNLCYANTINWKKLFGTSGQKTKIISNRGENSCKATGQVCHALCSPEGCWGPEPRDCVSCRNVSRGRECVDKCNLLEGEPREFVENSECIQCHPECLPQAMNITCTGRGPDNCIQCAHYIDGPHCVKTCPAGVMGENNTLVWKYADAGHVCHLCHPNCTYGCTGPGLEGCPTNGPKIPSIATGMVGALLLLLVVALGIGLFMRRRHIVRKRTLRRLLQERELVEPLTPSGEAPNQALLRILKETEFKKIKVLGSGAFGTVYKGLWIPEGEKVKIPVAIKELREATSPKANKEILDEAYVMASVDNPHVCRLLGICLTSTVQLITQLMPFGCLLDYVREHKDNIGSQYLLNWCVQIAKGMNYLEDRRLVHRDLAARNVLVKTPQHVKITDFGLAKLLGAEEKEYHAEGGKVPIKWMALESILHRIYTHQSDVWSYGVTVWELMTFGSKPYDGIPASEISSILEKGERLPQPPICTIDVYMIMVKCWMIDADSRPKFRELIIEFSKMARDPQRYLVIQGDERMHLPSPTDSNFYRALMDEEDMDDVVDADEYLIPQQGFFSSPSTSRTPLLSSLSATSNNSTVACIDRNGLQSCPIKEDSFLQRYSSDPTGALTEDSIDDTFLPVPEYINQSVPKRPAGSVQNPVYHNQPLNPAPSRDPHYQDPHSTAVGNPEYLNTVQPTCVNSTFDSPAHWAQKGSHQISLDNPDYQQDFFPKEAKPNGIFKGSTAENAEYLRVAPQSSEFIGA

For the compound `C=CC(=O)N1CCN(c2ncc3ncnc(Nc4cc(Br)c(Oc5ccc6c(c5)ncn6C)cc4Cl)c3n2)CC1` [Compound I-10], the IC50 at HER2 YVMA is 80 nM; against EGFR wild type (WT) it was 1770 nM. Moreover, the GI50 in assay [1] was 52 nM; in assay [2] it was 216 nM; in assay [3], above 5000 nM; in the assay with Ba/F3 cells HER2 WT it was 8 nM; in assay [4] it was 64 nM; with Ba/F3 cells EGFR WT, 1630 nM.
For `C=CC(=O)N1CCN(c2ncc3ncnc(Nc4cc(Cl)c(Oc5ccc6c(c5)ncn6C)c(Cl)c4)c3n2)CC1` [Compound I-7], the results for the concentration for half-maximal inhibition (IC50) at HER2 YVMA and on EGFR wild type (WT) were 30 nM and 996 nM, respectively. The GI50 is 25 nM in assay [1]; 118 nM in assay [2]; above 5000 nM in assay [3]; 6 nM in the assay with Ba/F3 cells HER2 WT; 37 nM in assay [4]; 1110 nM in the assay with Ba/F3 cells EGFR WT.
On to `C#Cc1cc(Nc2ncnc3cnc(N4CCN(C(=O)C=C)CC4)nc23)ccc1Oc1ccc2c(c1)ncn2C` [Compound I-2], for which the IC50 at HER2 YVMA was found to be 10 nM; on EGFR wild type (WT) it was 380 nM. Besides, the GI50 in assay [1] turned out to be 9 nM; in assay [2] it was 50 nM; in assay [3], 4660 nM; in the assay on Ba/F3 cells HER2 WT, 1 nM; in assay [4] it was 9 nM; in the assay on Ba/F3 cells EGFR WT, 1380 nM.
Regarding `C=CC(=O)N1CCN(c2ncc3ncnc(Nc4cc(F)c(Oc5ccc6c(c5)ncn6C)c(Cl)c4)c3n2)CC1` [Compound I-8], the IC50 was determined as 22 nM at HER2 YVMA and 355 nM against EGFR wild type (WT). For the same compound, the GI50 stood at 21 nM in assay [1]; 172 nM in assay [2]; 3930 nM in assay [3]; 3 nM with Ba/F3 cells HER2 WT; 31 nM in assay [4]; 1040 nM in the assay on Ba/F3 cells EGFR WT.
On to `C=CC(=O)N1CCN(c2ncc3ncnc(Nc4ccc(Oc5ccc6c(c5)ncn6C)cc4F)c3n2)CC1` [Compound I-12], for which the IC50 came to 27 nM against HER2 YVMA and 873 nM on EGFR wild type (WT). Also, the GI50 in assay [1] is 45 nM; in assay [2] it was 167 nM; in assay [3], 4810 nM; in the assay on Ba/F3 cells HER2 WT, 7 nM; in assay [4] it was 48 nM; in the assay on Ba/F3 cells EGFR WT, 1180 nM.
With `C=CC(=O)N1CCN(c2ncc3ncnc(Nc4ccc(Oc5ccc6c(c5)ncn6C)c(Cl)c4)c3n2)CC1` [Compound I-4], the IC50 on HER2 YVMA came to 10 nM; against EGFR wild type (WT), 221 nM. Further, the GI50 was 11 nM in assay [1]; 81 nM in assay [2]; above 5000 nM in assay [3]; 2 nM with Ba/F3 cells HER2 WT; 17 nM in assay [4]; 904 nM in the assay with Ba/F3 cells EGFR WT.
For `C=CC(=O)N1CCN(c2ncc3ncnc(Nc4ccc(Oc5ccc6c(c5)ncn6C)c(F)c4)c3n2)CC1` [Compound I-6], the IC50 against HER2 YVMA was found to be 19 nM; on EGFR wild type (WT), 1110 nM. For the same compound, the 50% growth inhibitory concentration (GI50) in assay [1] stood at 26 nM; in assay [2], 146 nM; in assay [3], 2640 nM; in the assay with Ba/F3 cells HER2 WT it was 3 nM; in assay [4], 27 nM; with Ba/F3 cells EGFR WT, 1840 nM.
Regarding `C=CC(=O)N1CCN(c2ncc3ncnc(Nc4ccc(Oc5ccc6c(c5)ncn6C)c(OC)c4)c3n2)CC1` [Compound I-3], the results for the IC50 at HER2 YVMA and against EGFR wild type (WT) were 17 nM and 1170 nM, respectively. Besides, the GI50 in assay [1] was 18 nM; in assay [2] it was 74 nM; in assay [3], above 5000 nM; with Ba/F3 cells HER2 WT, 1 nM; in assay [4] it was 12 nM; in the assay with Ba/F3 cells EGFR WT it was 2800 nM.
`C=CC(=O)N1CCN(c2ncc3ncnc(Nc4cc(F)c(Oc5ccc6c(c5)ncn6C)c(F)c4)c3n2)CC1` [Compound I-11]: the IC50 is 25 nM at HER2 YVMA and 1170 nM at EGFR wild type (WT). The GI50 in assay [1] was 47 nM; in assay [2] it was 339 nM; in assay [3], above 5000 nM; in the assay with Ba/F3 cells HER2 WT it was 3 nM; in assay [4], 40 nM; with Ba/F3 cells EGFR WT it was 644 nM.
As to `C=CC(=O)N1CCN(c2ncc3ncnc(Nc4cc(Br)c(Oc5ccc6c(c5)ncn6C)c(Br)c4)c3n2)CC1` [Compound I-9], the values for the IC50 on HER2 YVMA and at EGFR wild type (WT) were 34 nM and 485 nM, respectively. Moreover, the GI50 in assay [1] was determined as 46 nM; in assay [2] it was 203 nM; in assay [3] it was 2510 nM; in the assay with Ba/F3 cells HER2 WT it was 5 nM; in assay [4] it was 23 nM; in the assay with Ba/F3 cells EGFR WT it was 1120 nM.
As for `C=CC(=O)N1CCN(c2ncc3ncnc(Nc4ccc(Oc5ccc6c(c5)ncn6C)c(Br)c4)c3n2)CC1` [Compound I-5], the IC50 is 15 nM against HER2 YVMA and 232 nM at EGFR wild type (WT). Also, the GI50 worked out at 16 nM in assay [1]; 76 nM in assay [2]; 2880 nM in assay [3]; 1 nM in the assay on Ba/F3 cells HER2 WT; 20 nM in assay [4]; 572 nM with Ba/F3 cells EGFR WT.
For `C=CC(=O)N1CCN(c2ncc3ncnc(Nc4ccc(Oc5ccc6c(c5)ncn6C)c(C)c4)c3n2)CC1` [Compound I-1], the IC50 at HER2 YVMA was found to be 10 nM; against EGFR wild type (WT) it was 265 nM. The GI50 in assay [1] is 16 nM; in assay [2], 82 nM; in assay [3], above 5000 nM; in the assay on Ba/F3 cells HER2 WT, 1 nM; in assay [4], 18 nM; in the assay on Ba/F3 cells EGFR WT it was 2400 nM.
